Measurements reported in US11180484B2, “Pyrazole derivatives as plasma kallikrein inhibitors” (KALVISTA PHARMACEUTICALS LIMITED, priority 2016, dated 2021).
Converted amounts (≈) assume the structure as drawn. Where two headings read alike, the source gives them in different places.

Legend:
[1] = Predicted plasma clearance (Clp), well-stirred model, rat; assay type: in vitro ADME; settings: percentage of hepatic blood flow
[2] = Plasma protein binding (PPB), rapid equilibrium dialysis, human plasma; assay type: in vitro ADME; settings: 5 μM test compound, dialysis 5 hrs at 37° C.
trypsin = assay: Determination of enzyme selectivity: trypsin; assay type: biochemical, human; settings: substrate at Km concentration
Description: Human serine protease enzymes plasmin, thrombin and trypsin were assayed for enzymatic activity using an appropriate fluorogenic substrate. Protease activity was measured by monitoring the accumulation of liberated fluorescence from the substrate over 5 minutes. The linear rate of fluorescence increase per minute was expressed as percentage (%) activity. The Km for the cleavage of each substrate was determined by standard transformation of the Michaelis-Menten equation.

[3] = In vitro permeability, Caco-2 model for oral absorption; assay type: in vitro ADME; settings: human, apical to basolateral, 50 μM test compound, 37° C.
Summary of the method: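 Caco-2 monolayers grown on collagen inserts for 3 days, with 50 μM compound added apically and incubated 1 hour at 37° C with shaking. Apical-to-basolateral transport measured by LCMS in both compartments. Monolayer integrity checked by TEER before and after, and by Lucifer Yellow flux.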

Human plasma kallikrein = Human plasma kallikrein (Homo sapiens (Human), UniProt P03952); assay: Determination of the IC50 for plasma kallikrein; assay type: biochemical; settings: 25° C., substrate H-DPro-Phe-Arg-AFC; read-out: IC50 (human PKal)
Human plasma kallikrein, sequence (P03952 391-638): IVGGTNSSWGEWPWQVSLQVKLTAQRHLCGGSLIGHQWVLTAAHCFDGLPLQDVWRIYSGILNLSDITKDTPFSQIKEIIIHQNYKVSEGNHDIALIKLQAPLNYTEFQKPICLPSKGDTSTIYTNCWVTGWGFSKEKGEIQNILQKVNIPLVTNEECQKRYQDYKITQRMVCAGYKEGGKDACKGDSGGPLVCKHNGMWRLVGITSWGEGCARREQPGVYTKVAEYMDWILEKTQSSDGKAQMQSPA
Human plasma kallikrein, sequence (P03952 20-390): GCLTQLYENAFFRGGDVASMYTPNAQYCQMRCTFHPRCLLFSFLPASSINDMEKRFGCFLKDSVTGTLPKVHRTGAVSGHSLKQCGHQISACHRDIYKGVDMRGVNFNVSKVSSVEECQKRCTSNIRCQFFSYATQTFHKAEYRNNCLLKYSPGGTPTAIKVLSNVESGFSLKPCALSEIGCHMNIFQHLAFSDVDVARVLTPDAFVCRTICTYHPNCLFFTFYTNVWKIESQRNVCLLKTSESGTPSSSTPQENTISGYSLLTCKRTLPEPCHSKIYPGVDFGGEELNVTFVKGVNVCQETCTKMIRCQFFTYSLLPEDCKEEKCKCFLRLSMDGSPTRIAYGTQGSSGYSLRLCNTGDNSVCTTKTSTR
Description: (§1) Human plasma kallikrein (Protogen) was incubated at 25° C. with the fluorogenic substrate H-DPro-Phe-Arg-AFC and various concentrations of the test compound. Residual enzyme activity (initial rate of reaction) was determined by measuring the change in […] at 410 nm and the IC50 value for the test compound was determined.

Human FXIa = Human FXIa (Homo sapiens (Human), UniProt P03951); assay: Determination of the % inhibition / IC50 for FXIa; assay type: biochemical; settings: for inhibition at 40 µM: 40 μM test compound, read-out: % Inhibition @ 40 μM (human FXIa); for IC50: 25° C., substrate Z-Gly-Pro-Arg-AFC
Human FXIa, sequence (P03951 388-625): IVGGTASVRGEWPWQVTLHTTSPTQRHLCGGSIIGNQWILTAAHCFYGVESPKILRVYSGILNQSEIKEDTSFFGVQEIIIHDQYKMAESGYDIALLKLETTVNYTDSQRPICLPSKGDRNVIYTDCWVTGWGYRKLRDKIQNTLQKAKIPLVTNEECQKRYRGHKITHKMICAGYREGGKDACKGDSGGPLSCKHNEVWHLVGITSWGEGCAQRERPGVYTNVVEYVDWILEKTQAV
Human FXIa, sequence (P03951 19-387): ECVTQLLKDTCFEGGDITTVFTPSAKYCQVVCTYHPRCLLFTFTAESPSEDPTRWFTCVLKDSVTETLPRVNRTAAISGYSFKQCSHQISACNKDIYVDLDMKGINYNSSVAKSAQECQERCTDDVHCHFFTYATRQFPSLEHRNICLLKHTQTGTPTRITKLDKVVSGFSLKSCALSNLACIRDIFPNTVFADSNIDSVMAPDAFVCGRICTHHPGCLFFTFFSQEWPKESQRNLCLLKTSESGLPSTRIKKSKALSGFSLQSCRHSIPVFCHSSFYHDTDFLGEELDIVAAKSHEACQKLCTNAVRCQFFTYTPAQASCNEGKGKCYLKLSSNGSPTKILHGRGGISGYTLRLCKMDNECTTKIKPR
Description: FXIa inhibitory activity in vitro was determined using standard published methods (see e.g. Johansen et al., Int. J. Tiss. Reac. 1986, 8, 185; Shori et al., Biochem. Pharmacol., 1992, 43, 1209; Sturzebecher et al., Biol. Chem. Hoppe-Seyler, 1992, 373, 1025). […]

Human KLK1 = Human KLK1 (Homo sapiens (Human), UniProt P06870); assay: Determination of the IC50 for KLK1; assay type: biochemical; settings: 25° C., substrate H-DVal-Leu-Arg-AFC
Human KLK1, sequence (P06870 25-262): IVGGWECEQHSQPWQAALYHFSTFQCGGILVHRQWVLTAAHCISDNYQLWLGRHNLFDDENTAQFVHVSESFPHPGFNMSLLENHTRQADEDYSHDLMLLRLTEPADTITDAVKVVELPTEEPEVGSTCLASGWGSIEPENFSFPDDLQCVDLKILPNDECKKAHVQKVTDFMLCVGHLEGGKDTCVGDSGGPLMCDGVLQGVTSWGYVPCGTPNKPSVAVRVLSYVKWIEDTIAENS
Description: as §1, with “KLK1 (Callbiochem)” for “plasma kallikrein (Protogen)”, “H-DVal-Leu-Arg-AFC” for “H-DPro-Phe-Arg-AFC”

[4] = Predicted plasma clearance (Clp), well-stirred model, human; assay type: in vitro ADME; settings: percentage of hepatic blood flow
[5] = Intrinsic clearance in rat liver microsomes; assay type: in vitro ADME; settings: rat liver microsomes 0.5 mg/mL, 5 μM test compound, 37° C.; read-out: rat liver microsome (Clint μL/min/mg protein)
Description: (§2) Rat or human liver microsomes (0.5 mg/mL; Corning) were incubated with 5 μM test compound at 37° C. on a shaking platform (150 rpm). Samples were taken at 0, 6, 12, 18, 24 and 60 min and test compound concentrations were determined by LCMS against a calibration curve.

[6] = Intrinsic clearance in human liver microsomes; assay type: in vitro ADME; settings: human liver microsomes 0.5 mg/mL, 5 μM test compound, 37° C.; read-out: Human liver microsome (Clint μL/min/mg protein)
Description: as §2

[7] = Pharmacokinetics following a single oral dose in male Sprague-Dawley rats; assay type: in vivo; settings: rat, single po dose (nominal 10 mg/kg; actual dose per row in column Dose po), 10% DMSO/10% cremophor/80% SWFI, plasma
[8] = Solubility in water and 0.1N HCl (aq); assay type: physicochemical; settings: thermodynamic from solid, incubated at 1 mg/mL, 37° C.
Description: Solubility was determined in water and 0.1N HCl (aq). Test compounds were incubated at 1 mg/mL for 24 hrs at 37° C. on a shaking platform (500 rpm). Samples were taken at 1, 4 and 24 hrs and centrifuged at 15,000 g for 10 min. Test compound concentration in the supernatant was determined by LCMS against a standard curve.

[9] = simulated gastric fluid, 0.1N HCl (aq), read-out: Solubility 0.1N HCl (aq)
[10] = water, read-out: Solubility Water

| SMILES | Predicted in vivo rat Clp (% LBF) [1] [% LBF] | fraction unbound at 5 h, 5 μM [2] | IC50 (trypsin) [µM] | Papp at 1 h, 50 μM [3] [×10⁻⁶ cm/s] | IC50 (Human plasma kallikrein) [µM] | inhibition at 40 µM (Human FXIa) [%] | IC50 (Human FXIa) [µM] | IC50 (Human KLK1) [µM] | Predicted in vivo human Clp (% LBF) [4] [% LBF] | microsomal CLint at 5 μM [5] [µL/min/mg] | microsomal CLint at 5 μM [6] [µL/min/mg] | Cmax [7] [ng/mL] | Tmax [7] [min] | solubility [8, 9] [µg/mL] | solubility [8, 10] [µg/mL] |
| --- | --- | --- | --- | --- | --- | --- | --- | --- | --- | --- | --- | --- | --- | --- | --- |
| COCc1nn(Cc2ccc(Cn3ccccc3=O)cc2)cc1C(=O)NCc1c(-n2cnnn2)ccc(OC)c1F [Example 39, N-{[2-Fluoro-3-methoxy-6-(1,2,3,4-tetrazol-1-yl)phenyl]methyl}-3-(methoxymethyl)-1-({4-[(2-oxopyridin-1-yl)methyl]phenyl}methyl)pyrazole-4-carboxamide] | 5 | 0.22 | > 40 | 6 | 0.0006 | 91 | 3.7 | > 4 | 21 | 19 | 29 | 187 | 30 | 19 (≈ 34 µM) | 7 (≈ 12.5 µM) |
| COCc1nn(Cc2cnc(N3CCCC3)nc2)cc1C(=O)NCc1c(-n2cnnn2)ccc(OC)c1F [Example 79, N-{[2-Fluoro-3-methoxy-6-(1,2,3,4-tetrazol-1-yl)phenyl]methyl}-3-(methoxymethyl)-1-{[2-(pyrrolidin-1-yl)pyrimidin-5-yl]methyl}pyrazole-4-carboxamide] | 3 | 0.09 | > 40 | 19 | 0.0015 | 96 | 0.127 | > 40 | 1 | 23 | 4 | 807 | 45 | 924 (≈ 1770 µM) | 93 (≈ 178 µM) |
